Reference: patent US7122335B1, “Compounds and methods to enhance rAAV transduction” (priority 1999, dated 2006)

Test system: polarized human bronchial epithelial cells
Assay type: cell-based
Experimental: FIGS. 7A and 7B. Proteasome inhibitors differentially augment rAAV transduction from the apical or basolateral surfaces of airway epithelia. The efficiency and time course of rAAV transduction were evaluated in polarized airway epithelial cultures following infection with rAV.GFPori3 (MOI=10,000 particles/cell) in the presence or absence of 40 μM LLnL. Transgene expression was monitored by indirect fluorescence microscopy at the indicted time points by quantifying the mean number of GFP positive cells per 10× field (mean +/−SEM of 3 independent samples for each time point). The effect of LLnL treatment was compared between matched sets of tissue samples at each time point following infection from the apical (FIG. 7A) or basolateral (FIG. 7B) surfaces. The photomicrographs on the right side of each figure illustrate representative 20× fields for the 3 and 22 day post-infection time points.
FIG. 9. Effects of different agents on AAV transduction from the basal surface of polarized bronchial epithelia. Fully differentiated human bronchial airway epithelia were treated with the indicated agents at the time of AAV infection (MOI=10,000 particles/cell) from the basolateral surface. […] Since most of the tested agents (except for hydroxyurea) were dissolved in DMSO, a vehicle control of 1% (vol/vol) DMSO was also performed to exclude the possibility of a non-specific effect. GFP expression was monitored at 48 hours post-infection by counting the number of GFP positive cells per 10 random 10× fields in the culture dishes. The data represent the mean +/−SEM of three independent infections for each tested chemical.
FIG. 10. The proteasome inhibitor LLnL preferentially induces AAV transduction in ciliated cells. The cell types transduced by AAV were examined by alkaline phosphatase staining 3 days following basolateral infection of polarized epithelial cultures with AV.Alkphos infection (MOI=10,000 particles/cell) in the presence of or absence of 40 μM LLnL. […] 8 μm paraffin sections were used to histologically quantify the types of cells transduced. Three classifications were used, ciliated cells (with alkphos expression localized to the apical membrane and cilia), basal cells residing in the lower half of the epithelium with no contact with the lumen, and non-ciliated, columnar cells. Panel C (without LLnL) and D (with LLnL) show representative neutral red counter-stained cross-sections for each condition. The numbers of alkphos stained cells/2000 epithelial cells for the various cell types transduced by AAV are presented in panel E (mean +/−SEM from three independent Millicell insert samples).
FIGS. 11A and 11B. Optimization of LLnL-enhanced transduction in polarized bronchial epithelia. Differentiated transwell cultures were infected with AV.GFP3ori (10,000 particles/cell) from either the basolateral (FIG. 11A) or the apical (FIG. 11B) surface with the indicated treatments involving LLnL and/or EGTA. All infections were carried out for 24 hours and GFP transgene expression was monitored by indirect fluorescent microscopy at the indicated times. Data represent the mean (+/−SEM, N=6) for each experimental condition. Experiments were performed in triplicate on transwells derived from samples obtained from two different patients. […]

## N-acetyl-L-leucinyl-L-leucinal-L-norleucinal [LLnL]
LLnL and rAAV co-administered to the mucosal surface
  time of peak augmentation in AAV transduction: 22 days post-infection
Apical infection with LLnL, by 30 days
  maximal level of transgene expression relative to basal infection: one eighth
Basolateral (serosal) infection MOI 10,000, agent at time of infection, GFP at 48 hours/2 days, camptothecin 0.1 μM, etoposide 10 μM, hydroxyurea 40 mM, genistein 50 μM, LLnL 40 μM
  enhancement in rAAV transduction from the basolateral surface: greater than 200 fold
Basolateral infection, LLnL once every three days
  effect of repeated LLnL administration on transgene expression: increased length of peak transgene expression
Continual exposure to 40 μM LLnL in basal medium after basolateral infection
  toxicity to cultured airway cells: toxic to cells and ablated transgene expression by 10 days
rAAV infection from the serosal surface in the presence of LLnL
  time of transient peak in gene expression: 72 hours post-infection
Serosal application of AV.Alkphos, 40 μM LLnL, 3 days
  AV.Alkphos transduction: dramatic increase in AV.Alkphos transduction
